Measurements as given in patent US20240343757A1, “PROCESS FOR THE PREPARATION OF BUDESONIDE 21-PHOSPHATE” (GENETIC S.P.A., priority 2021, published 2024).

Assays:
[1] = background statement; cited from earlier work
[2] = background statement; cited from earlier work; remark: listed apart in the source
[3] = Stability in aqueous solution at the concentration of use, room temperature; format: physicochemical; settings: concentration of use 0.25 mg ml-4.0 mg ml
Procedure: At the concentration of use (0.25 mg ml-4.0 mg ml), it is rapidly soluble and remains stable at room temperature for long periods of time (12 months) without yellowing or precipitating.

[4] = ICH stability testing of budesonide 21-phosphate disodium salt (drug substance); format: physicochemical; settings: for assay content by HPLC: specification 95.0-105.0%; for unknown impurities: specification ≤0.1%; for known impurities: specification ≤0.2%
Procedure: Purity was assessed through the HPLC method of the European Pharmacopoeia 1075-Budesonide-related substance. […]

[5] = Solubility in water; format: physicochemical
From the text: 55, no. 1, pp. 578-582] at physiological pH in the intestinal region.
For this reason, hydroalcoholic solutions are usually prepared dissolving an adequate amount of active substance in solubilizers such as water-soluble alcohols. However, the so prepared solutions have low stability because large amounts of budesonide are decomposed within a short time. Moreover, budesonide formulations have been prepared until now in the form of aqueous suspensions in which the solid phase tends in time to deposit onto the bottom of the container, thus requiring chemical additives or vigorous stirring. These are the reasons that make budesonide not suitable to be delivered by an electric nebulizer.
Budesonide 21-phosphate disodium salt has a much higher water solubility than Budesonide and Budesonide 21-phosphate.

[6] = 40° C. and 75% RH (accelerated), Time 0
[7] = 40° C. and 75% RH (accelerated), Time 3 m
[8] = 40° C. and 75% RH (accelerated), Time 6 m

For `CCCC1OC2CC3C4CCC5=CC(=O)C=CC5(C)C4C(O)CC3(C)C2(C(=O)CO)O1` (stereo not drawn) [Budesonide, 1β,21-dihydroxy-16α, 17α-(butylidenebis(oxy)) pregna-1,4-diene-3,20-dione], the “solubility in alcohols” value [1] is listed as “readily soluble in alcohols” and the “solubility in water” value [2] is listed as “virtually insoluble in water”.

For Budesonide 21-phosphate disodium salt, the “period stable in solution without yellowing or precipitating” value [3] was 12 months, the “assay content by HPLC” value ([4]; 25° C. and 60% RH, Time 0) was 98.22% and the unknown impurities ([4]; 25° C. and 60% RH, Time 0) was 0.05%. For the same molecule, the known impurities ([4]; 25° C. and 60% RH, Time 0) was 0.14%, the “assay content by HPLC” value ([4]; 25° C. and 60% RH, Time 3 m) was 98.10% and the unknown impurities ([4]; 25° C. and 60% RH, Time 3 m) was 0.05%. For the same molecule, the known impurities ([4]; 25° C. and 60% RH, Time 3 m) was 0.14%, the “assay content by HPLC” value ([4]; 25° C. and 60% RH, Time 6 m) was 98.08% and the unknown impurities ([4]; 25° C. and 60% RH, Time 6 m) was 0.05%. The known impurities ([4]; 25° C. and 60% RH, Time 6 m) was 0.14%, the “assay content by HPLC” value ([4]; 25° C. and 60% RH, Time 9 m) was 97.85% and the unknown impurities ([4]; 25° C. and 60% RH, Time 9 m) was 0.08%. The known impurities ([4]; 25° C. and 60% RH, Time 9 m) was 0.15%, the “assay content by HPLC” value ([4]; 25° C. and 60% RH, Time 12 m) was 97.45% and the unknown impurities ([4]; 25° C. and 60% RH, Time 12 m) was 0.08%. The known impurities ([4]; 25° C. and 60% RH, Time 12 m) was 0.15%, the “assay content by HPLC” value ([4]; 30° C. and 65% RH, Time 0) was 98.22% and the unknown impurities ([4]; 30° C. and 65% RH, Time 0) was 0.05%. For the same molecule, the known impurities ([4]; 30° C. and 65% RH, Time 0) was 0.14%, the “assay content by HPLC” value ([4]; 30° C. and 65% RH, Time 3 m) was 97.50% and the unknown impurities ([4]; 30° C. and 65% RH, Time 3 m) was 0.15%. For the same molecule, the known impurities ([4]; 30° C. and 65% RH, Time 3 m) was 0.20%, the “assay content by HPLC” value ([4]; 30° C. and 65% RH, Time 6 m) was 97.28% and the unknown impurities ([4]; 30° C. and 65% RH, Time 6 m) was 0.15%. For the same molecule, the known impurities ([4]; 30° C. and 65% RH, Time 6 m) was 0.25%, the “assay content by HPLC” value ([4]; 30° C. and 65% RH, Time 9 m) was 97.00% and the unknown impurities ([4]; 30° C. and 65% RH, Time 9 m) was 0.40%. The known impurities ([4]; 30° C. and 65% RH, Time 9 m) was 0.25%, the “assay content by HPLC” value ([4]; 30° C. and 65% RH, Time 12 m) was 94.55% and the unknown impurities ([4]; 30° C. and 65% RH, Time 12 m) was 0.40%. For the same molecule, the known impurities ([4]; 30° C. and 65% RH, Time 12 m) was 0.30%, the “assay content by HPLC” value [4, 6] was 98.22% and the unknown impurities [4, 6] was <0.05%. For the same molecule, the known impurities [4, 6] was 0.14%, the “assay content by HPLC” value [4, 7] was 96.50% and the unknown impurities [4, 7] was 2.45%. The known impurities [4, 7] was 0.30%, the “assay content by HPLC” value [4, 8] was 93.28% and the unknown impurities [4, 8] was 2.80%. The known impurities [4, 8] was 0.45%, the water solubility [5] was 110 mg/mL and the “water solubility class” value ([5]; freely soluble = 100-1000 mg/mL) was “freely soluble in water”.
